Here are results for 3 molecules from paper PMC6777777 (PLoS ONE, 2019).

Series [1] is described as follows: Titration curve of T3 (pK values). Type of series: physicochemical.
In series [2] the target is T1, nicotinic acetylcholine receptor (nAChR) from Torpedo californica (Tetronarce californica, UniProt P02710+P02712+P02714+P02718).
T1 construct: flash-frozen Torpedo electric organ was purchased from Aquatic Research Consultants (San Pedro, CA); tissue Aquatic Research Consultants (San Pedro, CA); host or cells: Torpedo electric organ; Membranes were solubilized in cholate, reconstituted in asolectin liposomes and microinjected as protein into Xenopus oocytes
Briefly: Two-electrode voltage clamp: inhibition of carbachol-stimulated nAChR current. Type of series: cell-based. For orientation: Two-electrode voltage clamp is typically applied to oocytes expressing channels or transporters.

Series [3] deals with T1, nicotinic acetylcholine receptor (nAChR) from Torpedo californica. Description: Two-electrode voltage clamp of oocytes injected with Torpedo nAChRs: inhibition of acetylcholine-stimulated current. Type of series: cell-based. The note with it: seen at ≥ 100 μM inhibitor, 30 μM acetylcholine. How it is done: (§1) Sixteen hours after injection, the oocytes were clamped using a TEVC system. All ligands were dissolved in modified Barth’s solution at the indicated pH and were perfused into the chamber using a gravity-flow system. Thyroid hormones were initially dissolved in 0.1 M NaOH. […] Acetylcholine was applied to the bath surrounding the oocyte using a gravity-flow system at 10–13 mL/min. […] Each ligand perfusion lasted 60–70 seconds; after each perfusion, the bath solution was exchanged with ligand-free buffer until the current response signal had returned to baseline for at least 120 seconds before the next application of ligand(s). Data were recorded using iWorx LabScribe v1.959.

The target is the same in series [4]. Briefly: TEVC desensitization kinetics: decay response of nAChR current, slow component of two-exponential fit. On the set-up: unit not given here. Type of series: cell-based. How it is done: as §1
The data were then trimmed to begin with the response as it reached 0.96 of the response peak (to avoid false inflection points by signal noise just after the response’s maximum point), and end 35 seconds post-peak. The data were then fit to a two-degree exponential function (i.e., slow and fast response; y=a×e^−(x/A1)+b×e^−(x/A2) ). […] For each ligand/environmental condition (n = 3, per condition), decay response and amplitude were calculated and averaged.

T1 sequence (P02710 25-461): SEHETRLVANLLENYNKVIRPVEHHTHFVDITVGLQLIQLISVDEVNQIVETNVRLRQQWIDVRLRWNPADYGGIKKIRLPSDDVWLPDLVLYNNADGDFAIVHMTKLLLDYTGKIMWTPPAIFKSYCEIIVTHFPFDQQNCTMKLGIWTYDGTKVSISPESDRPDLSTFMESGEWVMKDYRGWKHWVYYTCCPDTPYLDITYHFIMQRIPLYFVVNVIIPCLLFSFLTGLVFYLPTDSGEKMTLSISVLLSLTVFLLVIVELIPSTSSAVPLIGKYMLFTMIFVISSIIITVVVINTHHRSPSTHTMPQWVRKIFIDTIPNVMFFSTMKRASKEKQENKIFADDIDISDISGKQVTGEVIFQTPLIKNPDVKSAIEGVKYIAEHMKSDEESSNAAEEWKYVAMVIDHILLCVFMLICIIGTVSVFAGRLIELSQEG
T1 sequence (P02712 25-493): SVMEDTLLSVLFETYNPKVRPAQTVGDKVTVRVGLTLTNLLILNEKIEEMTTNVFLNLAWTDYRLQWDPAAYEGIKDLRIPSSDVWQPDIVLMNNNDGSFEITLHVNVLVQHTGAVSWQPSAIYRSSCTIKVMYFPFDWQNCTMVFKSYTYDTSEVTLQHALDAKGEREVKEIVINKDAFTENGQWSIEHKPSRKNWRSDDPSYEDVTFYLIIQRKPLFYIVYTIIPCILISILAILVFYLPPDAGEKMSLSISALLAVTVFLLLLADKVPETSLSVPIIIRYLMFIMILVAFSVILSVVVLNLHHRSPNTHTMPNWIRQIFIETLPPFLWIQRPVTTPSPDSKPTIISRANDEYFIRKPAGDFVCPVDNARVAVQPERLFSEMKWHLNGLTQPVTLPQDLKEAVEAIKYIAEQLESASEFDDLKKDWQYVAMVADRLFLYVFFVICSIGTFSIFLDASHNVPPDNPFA
T1 sequence (P02714 18-506): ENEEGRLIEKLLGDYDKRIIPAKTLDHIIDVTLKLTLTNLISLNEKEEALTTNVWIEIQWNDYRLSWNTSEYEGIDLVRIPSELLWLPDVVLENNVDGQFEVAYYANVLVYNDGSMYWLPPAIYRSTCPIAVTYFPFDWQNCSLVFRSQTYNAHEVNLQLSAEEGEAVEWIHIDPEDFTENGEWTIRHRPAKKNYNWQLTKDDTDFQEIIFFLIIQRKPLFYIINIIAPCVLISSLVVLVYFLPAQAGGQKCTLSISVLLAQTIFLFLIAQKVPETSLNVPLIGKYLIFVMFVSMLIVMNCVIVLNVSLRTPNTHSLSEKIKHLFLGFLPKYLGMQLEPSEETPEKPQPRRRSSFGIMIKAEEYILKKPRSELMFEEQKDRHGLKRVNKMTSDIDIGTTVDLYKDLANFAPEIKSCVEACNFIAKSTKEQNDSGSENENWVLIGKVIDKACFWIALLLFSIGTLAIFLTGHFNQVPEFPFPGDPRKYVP
T1 sequence (P02718 22-522): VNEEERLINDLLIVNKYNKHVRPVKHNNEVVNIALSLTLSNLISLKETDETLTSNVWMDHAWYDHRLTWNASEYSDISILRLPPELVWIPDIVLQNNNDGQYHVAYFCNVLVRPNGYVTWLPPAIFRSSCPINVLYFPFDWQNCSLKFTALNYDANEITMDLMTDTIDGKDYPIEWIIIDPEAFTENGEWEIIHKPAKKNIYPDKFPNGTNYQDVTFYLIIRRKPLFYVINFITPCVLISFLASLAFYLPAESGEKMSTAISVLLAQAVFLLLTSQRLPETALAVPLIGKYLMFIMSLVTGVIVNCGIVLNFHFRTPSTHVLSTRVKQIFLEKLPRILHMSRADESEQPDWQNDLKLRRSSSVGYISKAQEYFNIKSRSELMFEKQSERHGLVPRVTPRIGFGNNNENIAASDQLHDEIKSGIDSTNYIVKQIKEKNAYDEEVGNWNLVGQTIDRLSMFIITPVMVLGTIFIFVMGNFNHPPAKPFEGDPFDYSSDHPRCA

On to `N[C@@H](Cc1cc(I)c(Oc2ccc(O)c(I)c2)c(I)c1)C(=O)O` [T3, L-3,3’,5-triiodothyronine], for which the “pK3, hydroxy group” value in series [1] is on record as 12.25.
For orientation: IC50 means the point on the concentration scale where inhibition reaches its midpoint. `CC(=O)[C@H]1CC[C@H]2[C@@H]3CC[C@H]4C[C@H](O)CC[C@]4(C)[C@H]3CC[C@]12C` [Allopregnanolone, 3α-hydroxy-5α-pregnan-20-one]: in series [2], half-maximal inhibition (IC50) required 20 µM.
For pregnenolone sulfate [PS], the “apparent maximal effect: reduction of the nAChR control response” value in series [3] is recorded as 81 ± 4%. Besides, the “Decay Response Mean” value in series [4] (dose 0.1 μM, pH 6, 30 μM acetylcholine) is 17.0; in series [4] (dose 0.1 μM, pH 6.5, 30 μM acetylcholine), 26.2; in series [4] (dose 0.1 μM, pH 7, 30 μM acetylcholine) it was 32.7; in series [4] (dose 0.1 μM, pH 7.5, 30 μM acetylcholine) it was 32.3; in series [4] (dose 0.1 μM, pH 8, 30 μM acetylcholine), 20.8; in series [4] (dose 0.1 μM, pH 8.5, 30 μM acetylcholine), 7.9. Besides, the “Decay Response Mean” value in series [4] (dose 0.1 μM, pH 9, 30 μM acetylcholine) amounted to 31.9; in series [4] (dose 1 μM, pH 6, 30 μM acetylcholine), 8.1; in series [4] (dose 1 μM, pH 6.5, 30 μM acetylcholine), 24.9; in series [4] (dose 1 μM, pH 7, 30 μM acetylcholine) it was 13.0; in series [4] (dose 1 μM, pH 7.5, 30 μM acetylcholine), 11.9; in series [4] (dose 1 μM, pH 8, 30 μM acetylcholine), 9.4. The “Decay Response Mean” value in series [4] (dose 1 μM, pH 8.5, 30 μM acetylcholine) came out at 1.2; in series [4] (dose 1 μM, pH 9, 30 μM acetylcholine), 18.5; in series [4] (dose 10 μM, pH 6, 30 μM acetylcholine), 10.5; in series [4] (dose 10 μM, pH 6.5, 30 μM acetylcholine), 11.00; in series [4] (dose 10 μM, pH 7, 30 μM acetylcholine), 4.6; in series [4] (dose 10 μM, pH 7.5, 30 μM acetylcholine) it was 4.8. Also, the “Decay Response Mean” value in series [4] (dose 10 μM, pH 8, 30 μM acetylcholine) was 3.0; in series [4] (dose 10 μM, pH 8.5, 30 μM acetylcholine), 3.2.
